Patent EP2197279B1, “C10-SUBSTITUTED CAMPTOTHECIN ANALOGS” (BIONUMERIK PHARMACEUTICALS, INC., priority 2007, dated 2009)
Where two headings read alike, the source gives them in different places.

How the values were obtained:
[1] = cited from earlier work; for Non-Hematologic Toxicity No. of Patients With: Cystitis / Non-Hematologic Toxicity No. of Patients With: Diarrhea: 5-day Course; for Number of Patients with Non-Hematologic Toxicity: Cystitis / Number of Patients with Non-Hematologic Toxicity: Diarrhea: Single-Dose Method
[2] = system: advanced malignant melanoma; conditions: fifteen patients, 90-360 mg/m^2 repeated every 2 weeks; cited from earlier work
[3] = system: advanced gastrointestinal cancer; conditions: cited from earlier work
[4] = eight patients with measurable disease, 5-day courses at dose levels associated with toxicity; cited from earlier work
human plasma proteins = test: Percent of free camptothecin analogs in human plasma (dialysis, HPLC); format: in vitro ADME; conditions: 100 nM Compound Concentrations
Procedure: Stocks of various camptothecin analogs were prepared in DMSO. […] Optimum HPLC detection conditions for each camptothecin analog were developed using traditional HPLC methods. Table VIII. Percent of Free Camptothecin Analogs in Human Plasma (100 nM Compound Concentrations)

[5] = system: panel of over 20 human cancer cell lines; test: In vitro studies on a panel of human cancer cell lines; format: cell-based; conditions: compared with Topotecan or SN-38
[6] = 15 mg/m^2 X 5, 9 patients treated
[7] = 17 mg/m^2 X 5, 5 patients treated
[8] = 20 mg/m^2 X 5, 10 patients treated
[9] = 5-Day Course (27 Patients Total), 4 wks
[10] = 5-Day Course (27 Patients Total), 8 wks
[11] = 5-Day Course (27 Patients Total), 12 wks
[12] = Single-Dose Method (34 Patients Total), 3 wks
[13] = Single-Dose Method (34 Patients Total), 6 wks
[14] = Single-Dose Method (34 Patients Total), 9 wks
[15] = Single-Dose Method (34 Patients Total), 12 wks

## CC[C@@]1(O)C(=O)OCc2c1cc1n(c2=O)Cc2cc3ccccc3nc2-1 [CPT sodium]
[1]; 5-Day Course (P<0.05)
  Cystitis: 48 (P<0.05) % of 27 Patients
[1]; 11 mg/m^2 X 5, 2 patients treated
  Non-Hematologic Toxicity No. of Patients With: Cystitis: 1
[1]; [6]
  Non-Hematologic Toxicity No. of Patients With: Cystitis: 4
  Non-Hematologic Toxicity No. of Patients With: Diarrhea: 1
[1]; [7]
  Non-Hematologic Toxicity No. of Patients With: Cystitis: 2
  Non-Hematologic Toxicity No. of Patients With: Diarrhea: 4
[1]; [8]
  Non-Hematologic Toxicity No. of Patients With: Cystitis: 6
  Non-Hematologic Toxicity No. of Patients With: Diarrhea: 4
[1]; 22 mg/m^2 X 5, 1 patient treated
  Non-Hematologic Toxicity No. of Patients With: Diarrhea: 1
[1]; Single Dose
  Cystitis: 24 % of 34 Patients
[1]; 100 mg/m^2, 6 patients treated
  Number of Patients with Non-Hematologic Toxicity: Cystitis: 2
[1]; 110 mg/m^2, 2 patients treated
  Number of Patients with Non-Hematologic Toxicity: Cystitis: 1
  Number of Patients with Non-Hematologic Toxicity: Diarrhea: 1
[1]; 120 mg/m^2, 7 patients treated
  Number of Patients with Non-Hematologic Toxicity: Cystitis: 2
  Number of Patients with Non-Hematologic Toxicity: Diarrhea: 4
[1]; 180 mg/m^2, 9 patients treated
  Number of Patients with Non-Hematologic Toxicity: Cystitis: 3
  Number of Patients with Non-Hematologic Toxicity: Diarrhea: 2
[2]
  myelosuppression: 11 patients
  patients with a 50% or greater decrease in tumor diameter: None
[3]; [9]
  Objective Results: Improved: 1
  Objective Results: Stable: 12
  Objective Results: Worse: 14
[3]; [10]
  Objective Results: Stable: 7
  Objective Results: Worse: 20
[3]; [11]
  Objective Results: Stable: 6
  Objective Results: Worse: 21
[3]; Single-Dose Method (34 Patients Total), 3 wks after start of therapy
  Objective Results: Improved: 4
[3]; [12]
  Objective Results: Stable: 17
  Objective Results: Worse: 13
[3]; [13]
  Objective Results: Improved: 2
  Objective Results: Stable: 11
  Objective Results: Worse: 21
[3]; [14]
  Objective Results: Improved: 2
  Objective Results: Stable: 8
  Objective Results: Worse: 24
[3]; [15]
  Objective Results: Stable: 6
  Objective Results: Worse: 28
[3]; after 2 months (8 or 9 weeks), of 61 patients
  patients with partial objective improvement: two
[3]; at 3 months, of 61 patients
  patients showing improvement: none
[3]; at 3 wks, only
  patients showing a 25%-50% response: *A total of 3 patients showed a 25%-50% response at 3 wks, only.
[4]
  clinical benefit: No clinical benefit

## CC[C@@]1(O)C(=O)OCc2c1cc1n(c2=O)Cc2c-1nc1ccccc1c2CC[Si](C)(C)C [Karenitecin (BNP1350), (4S)-4-ethyl-4-hydroxy-11-[2-(trimethylsilyl)ethyl]-1H-pyrano[3':4':6,7]indolizino[1,2-b]quinoline-3,14(4H,12H)-dione]
Human plasma proteins
  Percent of Free CPTs: 1%
[5]
  antitumor potency: significantly more potent
